Assay results reported in US11904040B2, “Zinc-amino acid-lauryl sulfate complex with antimicrobial activity” (Colgate-Palmolive Company, priority 2018, dated 2024).

Experiments:
S. mutans = assay: Metabolic inhibition of S. mutans (autotitrator base consumption after glucose); format: cell-based; conditions: for % Metabolic Reduction: S. mutans in 135 mM KCl, final zinc concentration 2.5 ppm (SLS equimolar to LS in Zn(Lys)2(LS)2), pH 7, 30 minutes, vs control containing only bacteria
Protocol: The chelation of zinc can modify its efficacy as an antibacterial agent. […] S. mutans is one of the prevalent bacteria present in the oral cavity. A concentrated suspension of S. mutans in 135 mM KCl was treated with a known concentration of zinc salt to obtain a final zinc concentration of 2.5 ppm. […] Using an autotitrator (Methrom Titrando 902) equipped with a 0.01M solution of KOH, the bacterial suspension was equilibrated to pH=7. After equilibrating, glucose was added to the solution. The autotitrator maintained the pH at 7 through the precise addition of KOH solution. The experiment was allowed to proceed for 30 minutes and the volume of base added was recorded at 10 second intervals. After 30 mins, a growth curve of base addition over time was obtained. The area under this curve was compared to the area under the curve for a control sample containing only bacteria and used to calculate a % reduction value. The control sample was analyzed from the same bacterial suspension as the test sample and the two samples were analyzed within 3 hours of each other. In order for data from a given suspension of S. mutans to be included, the control sample must consume at least 5 mL of base solution during the 30 minute time period.

[1] = Potentiometric titration, stability constants of the Zn, Lysine, SLS system; conditions: 25C, 50:50 glycerin:de-ionized water, 100 mM KNO3, 5 mM Zn

| Compound | % Metabolic Reduction (S. mutans) [%] | antibacterial performance compared to corresponding zinc-amino acid complex (S. mutans; S. mutans metabolic reduction, Table 10) | Log(B) stability constant [1] |
| --- | --- | --- | --- |
| O=[N+]([O-])[O-].O=[N+]([O-])[O-].[Zn+2] [Zn(NO3)2] | 67.16 ± 2.49 | – | – |
| zinc-arginine-lauryl sulfate [Zn(Arg)2(LS)2] | 72.53 ± 3.76 | directionally improved antibacterial performance compared to [Zn(Arg)2]^2+ | – |
| NCCCC[C@H](N)C(=O)O [HLys] | – | – | 10.07 |
| CCCCCCCCCCCCOS(=O)(=O)[O-].[Na+] [Sodium lauryl sulfate, sodium lauryl sulfate] | 34.12 ± 1.56 | – | – |
| zinc arginate [[Zn(Arg)2]^2+] | 67.19 ± 0.32 | – | – |
| NCCCCC(N)C(=O)O.NCCCCC(N)C(=O)O.[Cl-].[Cl-].[Zn+2] (stereo not shown) [ZLC, [Zn(C6H14N2O2)2Cl]^+Cl^−] | 53.90 ± 2.36 | – | – |
